Measurements reported in US9624491B2, “Methods and compositions for the detection and treatment of cancer involving miRNAs and miRNA inhibitors and targets” (Memorial Sloan Kettering Cancer Center, priority 2010, dated 2017).

Tests used:
[1] = test system: NOTCH1-induced T-ALL; assay: Mouse model of Notch-ICN (NOTCH1)-induced T-ALL, adoptive transfer of transduced HPCs; assay type: in vivo; settings: HPCs expressing NOTCH1-ICN plus miRNA or shRNA transplanted into irradiated recipients
Protocol: Can miR-19 drive the development of lymphatic malignancies in vivo? Based on the miR-19 expression and translocation data, miR-19 was assessed in a mouse model of T-ALL (Pear, et al., 1996). Briefly, most cases of T-ALL carry mutations in the Notch1 gene, and, like the […] translocation, these generate the constitutively active intracellular domain of NOTCH1 (Notch-ICN) (Weng, et al., 2004). To test miR-19's ability to promote Notch-ICN-induced T-ALL in vivo, HPCs were adoptively transferred into irradiated recipients (FIG. 3d). […] At the same time, 80% of the mice receiving HPCs expressing only Notch-ICN remained disease free (p=0.0003) (FIG. 3e).
The mouse models of Notch1-induced T-ALL and the EμMyc lymphoma based on adoptive transfer of retrovirally transduced HPCs have been reported (Pear, et al., 1996), (Wendel, et al., 2004). Data were analyzed in Kaplan-Meier format using the log-rank (Mantel-Cox) test for statistical significance. The p53 loss of heterozygosity polymerase chain reaction (LOH PCR) and immunophenotyping by surface marker analysis were as described (Wendel, et al., 2004).
A murine model of NOTCH1-induced T-ALL was used to directly test the oncogenic potential of the most promising miRNAs in vivo. Briefly, HPCs were transduced with NOTCH1 together with either empty vector or an miRNA and transplanted into irradiated, syngeneic recipients. Animals were monitored for leukemia onset by regular blood counts (FIG. 22a). […] Typically, animals receiving HPCs transduced with these miRNAs develop an acute leukemia by 75 days, while >80% of vector controls or animals receiving miR-30 (n=5, p=0.15) remain disease free at this time (FIG. 22b). Based on the in vitro screen and prediction, additional miRNAs were tested. […] Thus, miR-19b, miR-20a, miR-26a, miR-223 and also the less abundant miR-27a and miR-148/152 behave as oncogenes in a murine T-ALL model.
The mouse T-ALL model has been reported (Pear, et al., 1996), (Wendel, et al., 2004). Data were analyzed in Kaplan-Meier format using the log-rank (Mantel-Cox) test for statistical significance. […]

[2] = test system: PTEN, BCL2L11, PHF6, IKZF1, NF1, FBXW7; assay: 3′UTR reporter, quantitative PCR and immunoblot assays of tumor suppressor genes in murine leukemias; assay type: cell-based; settings: murine T-ALLs expressing NOTCH1 and miRNA, mRNA, protein
Protocol: Immunoblots of whole cell lysates were performed as described (Wendel, et al., 2004). Antibodies were against Bim/Bcl2l11 (AAP-330, 1:1000, Assay Designs), Nf1 (sc67, 1:100, Santa Cruz), Cdc4/Fbxw7 (ab7405, 1:500, Abeam), Ikzf1 (sc-13039, 1:500, Santa Cruz), Phf6 (NB100-79861, 1:1000, Novus Biologicals), Pten (9559, 1:1000, Cell Signaling), tubulin (1:5000; Sigma, B-5-1-2) and actin (1:5000; Sigma, AC-15).
Total RNA and miRNA-enriched RNA was extracted using the Allprep DNA/RNA/Protein and miRNeasy Mini kits. Pathological diagnosis was by expert hematopathologists at Weill Cornell Medical Center. cDNA synthesis, PCR and analysis by the ΔΔ Ct method were as described (Mavrakis, et al., 2008) and utilized Taqman Gene Expression Assays: Bcl2l11 (Mm00437796_m1), BCL2L11 (Hs00197982_m1), Pten (Mm01212532_m1), PTEN (Hs02621230_s1), Nf1 (Mm00812430_m1), NF1 (Hs01035104_m1), Ikzf1 (Mm01187878_m1), IKZF1 (Hs00172991_m1), Fbxw7 (Mm00504452_m1), FBXW7 (Hs00217794_m1), Phf6 (Mm00804415_m1), and Mouse GAPD (GAPDH) (4352932, Applied Biosystems). Expression was normalized to RNU6B (001093, Applied Biosystems).
The mouse FBXW7 (bp 2793-4139; acc. no. NM_001177773), human NF1 (bp 10033-10666; acc. no NM_000267), human PHF6 (bp position 3271-4299; acc. no. NM_001015877) and Bim (bp. 3155-4773; acc. no. NM_009754) 3′UTR fragments were generated by PCR and cloned into the psi-CHECK-2 vector (Promega) with the exception of the IKZF1 3′UTR, which was purchased from Genecopoeia (cat no. HmiT000397b, by 2343-4471 of UTR). The assays were performed as described (Xiao, et al., 2008).

Q: What does the source list for “miR-19: miRNA of the 17˜92 cluster, UGUGCAAAUCCAUGCAAAACUGA (SEQ ID NO: 2); seed family in Table 3 (expressed or natural sequence; listed as Homo sapiens)”?
A: leukemia onset / leukemia-free survival [1]: rapidly succumbed to T-ALL; leukemia onset / leukemia-free survival ([1]; listed as miR-19b): disease acceleration; regulation of tumor suppressor genes [2]: regulates PTEN and BCL2L11 expression
